Experimental data from publication PMC11184559, “Identification and Validation of Compounds Targeting Leishmania major Leucyl-Aminopeptidase M17” (ACS Infectious Diseases, 2024).
“And” between values parts separate entries of the source, which are not always exact repeats. Identical values can stand only once.

Assays:
[1] = test system: LmjF.35.1670 (60S ribosomal protein L26, putative); experiment: Isothermal TPP (iTPP) thermal stabilization, LmjF.35.1670; type: binding, Leishmania major; conditions: L. major promastigote lysate, 47 °C, compound at 10× EC50 vs DMSO
Method: (§1) Cell lysates were obtained as detailed above. Isothermal TPP assays were performed as previously described[29] but here lysates were incubated at two temperatures: 28 and 47 °C. The first temperature (28 °C) acts as a control temperature at which the protein levels are not altered by the presence of the test compound. The second temperature (47 °C) is the Leishmania spp. median Tm (melting temperature or temperature 50%) according to our interim data. […] These samples were aliquoted and submitted to a temperature shock at the designated temperature for 3 min, then 3 min at room temperature, and finally 3 min on ice. The soluble part was isolated by ultracentrifugation (100,000g, 20 min, 4 °C).
(§2) All aspects of sample processing, TMT-labeling, fractionation by HPLC into 10 fractions, LC-MS/MS, and protein identification and quantitation were described previously.[28],[68] Proteins with less than three peptides and those with increased stability at 28 °C were disregarded.
Proteins were identified by searching the MS and MS/MS data for the peptides against L. major strain Friedlin (TriTryp version 61, tritrypdb.org) using MaxQuant (http://maxquant.org/, version 2.1.4.0). All proteomics data sets have been deposited to the ProteomeXchange Consortium via the PRIDE[69] partner repository with the identifier PXD00000. Data were analyzed with Perseus v 1.6.15.[70] The reporter intensities of each protein were extracted and normalized to the control temperature reporter intensity (28 °C), then these normalized values were used to calculate the log2 transformed fold-changes (FC) of […] samples. Proteins stabilized (log2 FC > 1 in both replicates) were selected as putative hits.

[2] = test system: RAW 264.7 murine macrophages; conditions: 100 μM, 48 h, MTT
Text: Blank contains only culture medium. […] Each assay was developed in triplicate.

[3] = test system: L. donovani intracellular amastigotes; experiment: Leishmania donovani intracellular (intramacrophage) assay, single concentration; type: cell-based; conditions: 96 h, intracellular amastigotes in macrophages, Hoechst imaging; for Inhibition of L. donovani proliferation (%): 50 μM; for inhibition at 50 µM: Leishmania donovani, Macrophage, read-out: Inhibition of L. donovani proliferation (%)
Method: The effect of the compounds selected as inhibitors of rLmLAP on the proliferation of L. donovani amastigotes was evaluated at a concentration of 50 μM. Macrophage cultures (ECACC, catalog number: 88081201) were used as host cells. Parasites were incubated with 4.27× 10^7 macrophages, at a multiplicity of infection (MOI) of 5, at 37 °C with 5% CO2, overnight in DMEM medium supplemented with 4.5 g/L glucose and glutamine and 10% FBS, in a Millicell HY T-600 three-layer culture flask (Merck Millipore, Solna, Sweden). […] Macrophages were incubated for another 24 h in the above conditions with 133 μL of fresh DMEM medium prewarmed at 37 °C and supplemented with 10% FBS to obtain a high count of intracellular amastigotes.
Forty-two hours after macrophage infection, compounds (50 μM, 250 nL in DMSO) were dispensed using LabCyte ECHO into each well of 384-well dark flat bottom plates (Corning, New York, USA). The plates were incubated at 37 °C, 5% CO2, for 4 h (without compounds, with DMSO, to determine the initial level of infection) and for 96 h (with and without compounds).

rLmLAP = rLmLAP (Leishmania major, UniProt Q7KF27); experiment: RapidFire-MS aminopeptidase activity assay: inhibition of rLmLAP (LSTVIVR substrate); type: biochemical; conditions: for IC50: RapidFire-MS, 5 nM enzyme, 10 μM LSTVIVR, 20 min preincubation, 0.195-100 μM, mean ± standard error (n = 3)
Method: Assays were carried out as previously described,[24] with some differences indicated below. The reaction mix consisted of 0 nM (control) and 30 nM rLmLAP in 1× PBS, pH 7.0, 0.005% (v/v) NP-40, plus 7.5 μL of LSTVIVR substrate peptide in the same buffer. For product quantification, the peak areas of the LSTVIVR peptide were integrated with respect to the internal standard LSTVIVR* peptide. The C-terminal arginine was chosen because this amino acid is amenable to isotopic labeling.[45]
rLmLAP was assayed at 5 nM with 10 μM (1× appKM) of LSTVIVR substrate peptide. The enzyme was preincubated with bestatin or DMSO for 20 min. Bestatin was prepared at 10 concentrations in DMSO, covering the range from 0.39 to 100 μM. […] The remaining experimental conditions were maintained, as described above.
A high-throughput screen was conducted against rLmLAP using 3,383 compounds with known protease inhibitor motifs. The compounds were dispensed onto plates using an ECHO 550 acoustic dispenser (Labcyte, Sunnyvale, CA). The enzyme was assayed at 5 nM with 10 μM (1× appKM) LSTVIVR substrate for 60 min. Before adding the substrate, the enzyme was preincubated with 45 nL of the compounds or DMSO for 20 min. Compounds, dissolved in DMSO, were tested at 30 μM. […] No replicates were performed for each inhibitor in this experiment. The remaining experimental conditions were kept constant as described above. The ActivityBase program from IDBS provider (https://www.idbs.com) was used to process and analyze the data. Selection criteria for potential inhibitors in this screen required an inhibition percentage greater than the mean (calculated from the inhibition percentages of all the inhibitors) plus three standard deviations (SD). All compounds were purchased commercially and are >95% pure by HPLC.
To obtain IC50 data for screen-detected rLmLAP inhibitors at a single concentration, ten-point concentration–response curves were generated for selected inhibitors showing greater than mean ±3 SD inhibition. The curves were prepared in 384-well plates with a maximum concentration of 100 μM and 1:2 serial dilutions in DMSO (0.195–100 μM) using an ECHO 550 acoustic dispenser. All other experimental conditions were as described above for RapidFire-MS optimization. Three replicates of each concentration of inhibitor were evaluated. The IC50 value was calculated by nonlinear fitting of a four-parameter logistic function to the experimental data. Curve fitting and IC50 calculations were performed using IDBS ActivityBase XE version 9.2.0.106. Inhibitory activity was determined using the peak area ratio, calculated as the reaction product (STVIVR) divided by its internal standard (*LSTVIVR). The peak area ratio of the reaction without enzyme was defined as 100% inhibitory activity, and that of the complete reaction mixture was defined as 0% inhibitory activity. At least three replicates were generated for each hit compound.

[4] = test system: LmjF.23.0040 (peroxidoxin); experiment: Isothermal TPP (iTPP) thermal stabilization, LmjF.23.0040; type: binding, Leishmania major; conditions: L. major promastigote lysate, 47 °C, compound at 10× EC50 vs DMSO
Method: as §1, §2
Proteins were identified by searching the MS and MS/MS data for the peptides against L. major strain Friedlin (TriTryp version 61, tritrypdb.org) using MaxQuant (http://maxquant.org/, version 2.1.4.0). All proteomics data sets have been deposited to the ProteomeXchange Consortium via the PRIDE[69] partner repository with the identifier PXD00000. Data were analyzed with Perseus v 1.6.15.[70] […]

Sequence of rLmLAP (Q7KF27 entry or part of it): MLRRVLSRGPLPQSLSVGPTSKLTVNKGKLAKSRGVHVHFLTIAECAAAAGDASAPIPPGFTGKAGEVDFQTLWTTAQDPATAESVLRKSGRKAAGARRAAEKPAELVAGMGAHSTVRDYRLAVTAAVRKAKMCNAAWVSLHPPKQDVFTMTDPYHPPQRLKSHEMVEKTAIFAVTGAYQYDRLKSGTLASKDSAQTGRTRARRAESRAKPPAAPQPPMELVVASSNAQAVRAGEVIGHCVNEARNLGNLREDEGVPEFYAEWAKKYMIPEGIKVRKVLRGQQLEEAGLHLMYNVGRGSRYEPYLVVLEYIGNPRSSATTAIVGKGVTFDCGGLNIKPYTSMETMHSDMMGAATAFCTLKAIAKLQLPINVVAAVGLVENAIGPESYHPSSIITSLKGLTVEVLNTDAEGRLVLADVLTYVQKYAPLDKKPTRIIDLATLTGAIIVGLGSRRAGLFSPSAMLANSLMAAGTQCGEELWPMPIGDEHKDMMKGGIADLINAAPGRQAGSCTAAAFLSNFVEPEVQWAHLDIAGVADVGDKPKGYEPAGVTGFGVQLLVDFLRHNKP

Structure (SMILES): COc1ccc(Cc2c(N)nc(-c3ccccn3)nc2N)cc1 [DDD00057570]
- Enrichment (log2) replica A, LmjF.35.1670 [1]: 1.36 log2
- Enrichment (log2) replica B, LmjF.35.1670 [1]: 1.64 log2
- Maximum inhibitory effect, RAW 264.7 macrophage cell line [2]: 52%
- Inhibition of L. donovani proliferation (%) [3]: 98.4 ± 2.9%
- inhibition at 50 µM [3]: 98 ± 2.9%
- inhibition at 100 µM (rLmLAP): 99%
- IC50 (rLmLAP): 3.3 µM and 3 µM

Structure (SMILES): O=C(c1cccs1)N(CCCn1ccnc1)c1nc2ccccc2s1 [DDD00097924]
- Enrichment (log2) replica A, LmjF.23.0040 [4]: 1.31 log2
- Enrichment (log2) replica B, LmjF.23.0040 [4]: 1.21 log2
- Enrichment (log2) replica A, LmjF.35.1670 [1]: 1.71 log2
- Enrichment (log2) replica B, LmjF.35.1670 [1]: 1.97 log2
- Inhibition of L. donovani proliferation (%) [3]: 77.8 ± 3.1%
- inhibition at 50 µM [3]: 78%
- inhibition at 100 µM (rLmLAP): 75%
- Experimental ΔΔG (rLmLAP; DDD00097924 relative to DDD00057570): 1.3 kcal/mol
- IC50 (rLmLAP): 30.9 µM and 31 µM
